Measured values reported in patent publication US20230000843A1, “MEDICINAL COGNITIVE TREATMENTS” (ACTINOGEN MEDICAL LIMITED, priority 2019, published 2023).

How the values were obtained:
healthy elderly subjects [1] = experiment: Cogstate Detection test (simple reaction time, psychomotor function); type: in vivo, human
Description: (§1) The test was aimed at assessing if, and to what extent, Xanamem™ 20 mg a day may improve performance in healthy elderly subjects from Baseline (Week 0) to Weeks 2, 4, 6, 8, 10, 12 (End of Treatment) and 16 (Follow-up), as measured by changes in the Cogstate Test Battery. 42 subjects were randomised in which 30 subjects received 20 mg Xanamem™ once a day and 12 subjects received matching placebo once a day.
(§2) For each visit, excluding the Screening visit and safety visits (Week 6 and Week 10), subjects arrived at the study site having fasted for at least 10 hours. The subjects took Xanamem™ at site after all the pre-dose blood samples had been taken. Xanamem™ was taken 30 minutes after the start of a meal. On non-study visit days, the subjects took Xanamem™ at the same time each morning with food (30 minutes after the start of the meal).
(§3) One capsule of Xanamem™, or the matching placebo, was administered orally with approximately 200 mL of warm water once a day and with food in the morning, to the subjects from Baseline (Week 0) to End of Treatment (Week 12) for a total of 12 weeks. […]
For this test, the subject pressed a “YES” response key as soon as they detected an event (a card turning face up presented in the centre of the computer screen). The software measured the response time to detect each event.

healthy elderly subjects [2] = experiment: Cogstate Identification test (choice reaction time, visual attention); type: in vivo, human
Description: as §1, §2, §3
In this test an event (a card turning face up) occurred in the centre of the computer screen and the subject decided “YES” or “NO” as to whether this event met a predefined and unchanging criterion (i.e. is the color of the card red?). The software measured the speed and accuracy of each response.

healthy elderly subjects [3] = experiment: One Card Learning test (visual recognition learning); type: in vivo, human
Description: as §1, §2
(§4) One capsule of Xanamem™, or the matching placebo, was administered orally with approximately 200 mL of warm water once a day and with food in the morning, to the subjects from Baseline (Week 0) to End of Treatment (Week 12) for a total of 12 weeks.
To assess the efficacy of Xanamem™ 20 mg once a day in improving cognitive ability in the subjects, the Cogstate Test Battery of the subjects were checked at Baseline (Week 0), Weeks 2, 4, and 8, Week 12 (End of Treatment) and Week 16 (Follow-up). […]

healthy elderly subjects [4] = experiment: Cogstate One Back working memory test; type: in vivo, human
Description: as §1, §2, §3
The Cogstate One Back memory test is a valid measure of working memory. […] The software measured the speed and accuracy of each response.

healthy elderly subjects [5] = experiment: Continuous Paired Associate Learning test (CPAL); type: in vivo, human
Description: as §1, §2, §4
(§5) To assess the efficacy of Xanamem™ 20 mg once a day in improving cognitive ability in the subjects, the Cogstate Test Battery of the subjects were checked at Baseline (Week 0), Weeks 2, 4, and 8, Week 12 (End of Treatment) and Week 16 (Follow-up).
The Continuous Paired Associate Learning test is a measure of visual associate memory and uses a well-validated paired associate learning paradigm in which the subject must learn the locations of a number of amoeba-like shapes on the computer screen.
Beneath all but two of the blue spheres were amoeboid shapes, one of which matched the central display; the two remaining circles were distractors. In the exposure phase of the test all of the to-be-remembered pattern-location associations were presented on the computer screen simultaneously.
After a five second delay, a pattern was shown in the central location and this signals that the subject should touch the location in the periphery that contained the same pattern. This process continued until the participant had acknowledged all of the pattern-location associations. The learning phase began with the same test display presented during the exposure phase except that now all of the peripheral locations were shown as blue spheres. One of the patterns presented in the exposure phase was presented in the centre location. With the presentation of this pattern, the subject was required to select the peripheral location where an identical pattern was hidden beneath the blue sphere. […]
(§6) Finding the correct location for all patterns in the set was defined as a learning trial. […] The software recorded each move as an error or as a correct move.

healthy elderly subjects [6] = experiment: Continuous Paired Associate Learning-Delayed test; type: in vivo, human; conditions: 20 mg once a day orally, 12 weeks, compared to placebo group
Description: as §1, §2, §3, §6

healthy elderly subjects [7] = experiment: Cogstate Test Battery overall: impairment of cognition; type: in vivo, human; conditions: 20 mg compared to placebo over 12 weeks
Description: as §1, §5
The Cogstate Test Battery included the following tests: detection test, identification test, one card learning test, one back working memory test, and the continuous paired associate learning test (CPAL; paired associate learning).

[8] = Plasma concentrations and pharmacokinetics; type: in vivo, human
Description: as §1, §2, §4
The mean Xanamem™ plasma concentration at 3-5 hours after the first dose of the study was 169 ng/mL. […] The mean trough concentration at Weeks 2, 4, and 8, was 89, 73, and 78 ng/mL, and the mean 3 to 5 hour concentration was 353. 331, and 330 ng/mL for weeks 2, 4, and 8, respectively.
Only body weight was identified as a covariate impacting PK in this model, confirming that the PK of Xanamem™ are consistent between healthy volunteers, patients with Alzheimer's Disease, and healthy elderly subjects.

[9] = CSF and corresponding plasma concentrations at the EOT visit; type: in vivo; conditions: human, oral, 20 mg, four CSF samples at the EOT visit, read-out: ratio of CSF to plasma concentrations
Description: The ratio of Xanamem™ CSF to plasma concentrations in the four CSF samples taken at the EOT visit ranged from 0.028 to 0.421; the range of CSF concentrations was 3.48 to 6.25 ng/mL, compared to 11.6 to 126 ng/mL for the corresponding plasma concentrations.

[10] = 20 mg once a day orally, 12 weeks, compared to placebo group
[11] = 12 weeks treatment, 20 mg versus placebo, statistically significant

O=C(c1csc(-c2cn[nH]c2)c1)N1[C@@H]2CC[C@H]1C[C@](O)(c1ncccn1)C2 [Xanamem™, (5-(1H-Pyrazol-4-yl)thiophen-3-yl)(3-hydroxy-3-(pyrimidin-2-yl)-8-azabicyclo[3.2.1]octan-8-yl)methanone]
psychomotor function (speed of performance, log10 transformed reaction times for correct responses) (healthy elderly subjects [1]; [10]): improved psychomotor function | effect on Detection test (psychomotor speed) (healthy elderly subjects [1]; 20 mg versus placebo, by time point): evident at week 8 | visual attention (speed of performance, log10 transformed reaction times for correct responses) (healthy elderly subjects [2]; [10]): improved visual attention | effect size, speed of performance on Identification test (attention) (healthy elderly subjects [2]; [11]): > 0.6 | visual learning (accuracy of performance, arcsine transformation of proportion of correct responses) (healthy elderly subjects [3]; 20 mg once a day orally, week 8, compared to placebo group): improved visual learning | effect size (ES) data for One Card Learning outcomes (healthy elderly subjects [3]; 20 mg versus placebo, overall): tended to favour Xanamem™ 20 mg | working memory (speed of performance, log10 transformed reaction times for correct responses) (healthy elderly subjects [4]; [10]): improved working memory | effect size, speed of performance on One-back test (working memory) (healthy elderly subjects [4]; [11]): > 0.6 | Hippocampal dependent learning and memory (number of errors remembering the associations) (healthy elderly subjects [5]; [10]): improved Hippocampal dependent learning and memory | differences on Continuous Paired Associates Learning Test outcomes (healthy elderly subjects [5]; 20 mg versus placebo): statistically significant differences in data were in favour of Xanamem™ 20 mg | effect size difference on Continuous Paired Associates Learning Test, sensitivity analysis (healthy elderly subjects [5]; 20 mg versus placebo, Week 4): favoured Xanamem™ 20 mg | effect size (ES) data for Continuous Paired Associates outcomes (healthy elderly subjects [5]; 20 mg versus placebo, overall): tended to favour Xanamem™ 20 mg | Hippocampal dependent learning and memory (number of errors remembering the associations after a delay) (healthy elderly subjects [6]): improved Hippocampal dependent learning and memory | impairment of cognition associated with treatment (healthy elderly subjects [7]): no systemic evidence of impairment in any respect of cognition | mean 3 to 5 hour plasma concentration ([8]; Week 2, 20 mg once a day): 353 ng/mL | mean trough plasma concentration ([8]; Week 2, 20 mg once a day): 89 ng/mL | mean 3 to 5 hour plasma concentration ([8]; Week 4, 20 mg once a day): 331 ng/mL | mean trough plasma concentration ([8]; Week 4, 20 mg once a day): 73 ng/mL | mean 3 to 5 hour plasma concentration ([8]; Week 8, 20 mg once a day): 330 ng/mL | mean trough plasma concentration ([8]; Week 8, 20 mg once a day): 78 ng/mL | mean plasma concentration at 3-5 hours ([8]; after the first dose, 20 mg oral with food): 169 ng/mL | pharmacokinetic model ([8]; only body weight identified as covariate): one-compartment model with first-order absorption and elimination | steady state of plasma concentrations ([8]; trough and 3-5 hour concentrations consistent across Weeks 2, 4 and 8): steady state had been achieved by Week 2 | Kp [9]: 0.028 to 0.421
